Measured values published in patent US10633353B2, “Polymerizable compound, composition, polymer, optically anisotropic body, liquid crystal display element, and organic EL display” (DIC Corporation, priority 2014, dated 2020).

Legend:
[1] = Optical stability of the optical film (xenon-lamp irradiation); format: physicochemical; details: summary in words
Method: The coating liquid was applied to a glass substrate by spin coating, the glass substrate including a rubbed polyimide layer deposited thereon. The glass substrate was then placed on a hot plate, dried at 80° C. for 1 minute, and further dried at 140° C. for another 1 minute. Subsequently, irradiation with ultraviolet radiation at 1000 mJ/cm and 140° C. was performed.
The optical film was irradiated with light at 50 mW/cm^2, 25° C., and 100 J using a xenon-lamp irradiation testing machine (SUNTEST XLS, produced by Atlas). The optical stability of the optical film was evaluated on a scale of A to E below.
A: No change in the film was visually confirmed. An inspection of the optical film with a polarized light microscope also confirmed no defects.
B: Although no change in the film was visually confirmed, an inspection of the optical film with a polarized light microscope confirmed slight orientation defects.
C: Slight yellowing of the film was visually confirmed.
D: Yellowing of the film was visually confirmed. In addition, the optical film was partly detached from the glass substrate.
E: Yellowing of the entire film was visually confirmed. In addition, the optical film was detached from the glass substrate.

[2] = Preservation stability of the coating liquid; format: physicochemical
How it was run: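 Coating liquid stored 2 months at 0° C shielded from light, then graded A–E. Grades rest on visual appearance, change in composition by GPC, and weight ratio of insoluble components to total solids.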

[3] = coating liquid stored for 2 months shielded from light at 0° C., appearance and GPC

optical stability [1] | Preservation stability ([2]; summary in words) | SMILES | Preservation stability [2, 3]
high | high | C=CC(=O)OCCCCCCOc1ccc(OC(=O)C2CCC(C(=O)OCCc3ccc(OC(=O)C4CCC(C(=O)Oc5ccc(OCCCCCCOC(=O)C=C)cc5)CC4)c(/C=N/N(CCCCCC)c4nc5ccccc5s4)c3)CC2)cc1 (stereo not shown) [1-cmn-82] | A (No visual change in the appearance of the coating liquid was confirmed. A GPC analysis of the coating liquid confirmed that the change in the composition of the coating liquid was 1% or less.)
 |  | C=CC(=O)OCCCCOC(=O)/C=C/c1ccc(C(=O)Oc2ccc(OC(=O)c3ccc(/C=C/C(=O)OCCCCOC(=O)C=C)cc3)c(/C=N/Nc3nc4ccc5ccccc5c4s3)c2)cc1 [1-j-65] | B (No visual change in the appearance of the coating liquid was confirmed. A GPC analysis of the coating liquid confirmed that the change in the composition of the coating liquid was 2% or less.)
 |  | C=CC(=O)OCCCCCCOc1ccc(C(=O)Oc2ccc(OC(=O)c3ccc(OCCCCCCOC(=O)C=C)cc3)c3sc(-c4ccc([N+](=O)[O-])cc4)nc23)cc1 [r-1, reference compound] | D (A visual change in the appearance of the coating liquid was confirmed; insoluble components were confirmed. The ratio of the weight of the insoluble components to the total solid content was 5% or less.)
 |  | C=CC(=O)OCCCCCCOc1ccc(OC(=O)C2CCC(C(=O)Oc3ccc(OC(=O)C4CCC(C(=O)Oc5ccc(OCCCCCCOC(=O)C=C)cc5)CC4)c4c3SC(=C(C#N)C#N)S4)CC2)cc1 (stereo not shown) [r-2, reference compound] | C (A visual change in the appearance of the coating liquid was confirmed; a trace amount of insoluble components were confirmed, or a GPC analysis of the coating liquid confirmed that the change in the composition of the coating liquid was 3% or less.)
 |  | C=CC(=O)OCCCCCCOC1CCC(OC(=O)C2CCC(C(=O)Oc3ccc(OC(=O)C4CCC(C(=O)OC5CCC(OCCCCCCOC(=O)C=C)CC5)CC4)c4c3SC(=C(C#N)C(=O)OCC)S4)CC2)CC1 (stereo not shown) [r-3, reference compound] | C (A visual change in the appearance of the coating liquid was confirmed; a trace amount of insoluble components were confirmed, or a GPC analysis of the coating liquid confirmed that the change in the composition of the coating liquid was 3% or less.)
